Values belong to the molecule of their own block, whether it stands above or below them.
How the values were obtained:
wild-type mice = settings: Jankowski et al. 2007; cited from earlier work
AT1 receptor = molecular target: T1, AT1 receptor (Homo sapiens, UniProt P30556); settings: Jankowski et al. 2007; cited from earlier work
T1 sequence (P30556 1-359): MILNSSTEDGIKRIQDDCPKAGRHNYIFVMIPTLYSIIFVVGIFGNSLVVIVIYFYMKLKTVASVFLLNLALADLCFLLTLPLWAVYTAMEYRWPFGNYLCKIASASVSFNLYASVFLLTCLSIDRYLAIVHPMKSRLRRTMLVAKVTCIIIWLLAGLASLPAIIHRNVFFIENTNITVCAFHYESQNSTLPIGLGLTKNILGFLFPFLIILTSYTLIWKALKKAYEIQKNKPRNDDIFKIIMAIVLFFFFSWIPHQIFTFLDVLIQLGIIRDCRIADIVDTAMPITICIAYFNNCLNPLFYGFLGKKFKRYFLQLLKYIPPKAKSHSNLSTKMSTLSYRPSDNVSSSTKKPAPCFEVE

AT2 receptor = molecular target: T2, AT2 receptor (Homo sapiens, UniProt P50052); settings: Jankowski et al. 2007; cited from earlier work
T2 sequence (P50052 1-363): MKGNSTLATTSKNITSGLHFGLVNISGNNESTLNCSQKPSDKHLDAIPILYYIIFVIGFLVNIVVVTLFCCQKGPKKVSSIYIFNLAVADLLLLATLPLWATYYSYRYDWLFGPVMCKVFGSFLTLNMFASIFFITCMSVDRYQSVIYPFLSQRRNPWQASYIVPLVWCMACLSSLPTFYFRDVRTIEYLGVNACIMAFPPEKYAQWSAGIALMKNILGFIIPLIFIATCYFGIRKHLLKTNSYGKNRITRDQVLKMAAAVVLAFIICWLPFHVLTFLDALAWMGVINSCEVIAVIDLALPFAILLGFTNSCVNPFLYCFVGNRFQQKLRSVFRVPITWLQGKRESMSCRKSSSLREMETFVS

[1] = molecular target: T3, angiotensin converter enzyme (ACE) (Rattus norvegicus, UniProt P47820); assay: Plasmatic ACE activity, fluorimetric method with Hip-His-Leu substrate; assay type: biochemical, Wistar rats; settings: 5 mM enalaprilate, assay specificity control
T3 construct: from tissue; host or cells: plasma of Wistar rats
T3 sequence (P47820 36-1238 limits assumed): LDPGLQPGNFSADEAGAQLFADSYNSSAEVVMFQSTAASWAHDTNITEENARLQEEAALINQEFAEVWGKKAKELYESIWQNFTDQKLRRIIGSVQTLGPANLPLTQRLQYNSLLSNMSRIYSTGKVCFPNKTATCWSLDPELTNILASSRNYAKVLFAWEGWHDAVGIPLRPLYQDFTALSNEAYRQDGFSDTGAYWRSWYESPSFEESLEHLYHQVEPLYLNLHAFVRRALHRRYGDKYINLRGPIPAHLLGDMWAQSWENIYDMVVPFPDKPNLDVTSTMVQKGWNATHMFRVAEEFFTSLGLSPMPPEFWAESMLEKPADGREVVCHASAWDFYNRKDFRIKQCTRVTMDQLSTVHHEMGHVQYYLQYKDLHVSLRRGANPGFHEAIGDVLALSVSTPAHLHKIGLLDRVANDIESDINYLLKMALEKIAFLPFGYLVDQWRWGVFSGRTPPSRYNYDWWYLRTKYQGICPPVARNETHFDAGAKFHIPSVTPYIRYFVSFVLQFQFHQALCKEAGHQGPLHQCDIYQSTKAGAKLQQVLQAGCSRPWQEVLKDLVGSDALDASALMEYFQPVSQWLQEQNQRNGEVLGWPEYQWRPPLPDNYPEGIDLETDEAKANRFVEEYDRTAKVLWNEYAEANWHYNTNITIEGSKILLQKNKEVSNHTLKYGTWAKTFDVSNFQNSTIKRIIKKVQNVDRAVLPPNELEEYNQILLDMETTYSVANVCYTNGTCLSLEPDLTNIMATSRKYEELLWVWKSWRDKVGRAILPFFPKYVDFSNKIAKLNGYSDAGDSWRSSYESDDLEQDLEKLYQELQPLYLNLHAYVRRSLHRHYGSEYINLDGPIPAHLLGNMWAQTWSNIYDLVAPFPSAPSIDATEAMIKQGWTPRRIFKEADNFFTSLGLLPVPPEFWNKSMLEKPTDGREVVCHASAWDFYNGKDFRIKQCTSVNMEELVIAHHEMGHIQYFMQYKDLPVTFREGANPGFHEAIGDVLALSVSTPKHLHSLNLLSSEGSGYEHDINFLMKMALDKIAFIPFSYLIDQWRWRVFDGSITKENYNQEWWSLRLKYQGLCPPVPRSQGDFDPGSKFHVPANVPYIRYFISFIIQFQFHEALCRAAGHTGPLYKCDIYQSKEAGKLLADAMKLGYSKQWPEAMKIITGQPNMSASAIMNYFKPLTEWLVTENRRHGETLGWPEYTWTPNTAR
Description: The plasmatic activity of ACE was measured by the fluorimetric method using Hip-His-Leu as substrate, as previously described (Santos, R. A. S. et al., Hypertension, 7:244-52, (1985)). Plasma aliquots (10 μL) of Wistar rats were incubated with a […] solution containing a 1 mM substrate (Hip-His-Leu) and 0.4 M of sodium borate, 0.9 M NaCl (pH=8.3) for 15 minutes at 37° C. The reaction was halted by adding 1.2 mL of NaOH at 0.34 M and […] of orthoftaldehyde (20 mg/mL in methanol). After 10 minutes at environment temperature, […] of HCl at 3 N was added. Later on, after a 5-minute 800×g centrifugation, the floating solution fluorescence was measured (a 365 nm excitation and a 495 nm emission). The blank was prepared by inverting the addition order of plasma and NaOH. A 0.5 to 20 nmol curve, containing the product (His-Leu) resulting of the substrate break (Hip-His-Leu) by ACE plasmatic activity, was prepared in each assay. In order to test the inhibition effect of ACE by the PEPTIDEs Ang-(1-7) and Ala^1-Ang-(1-7), 3.3×10^−7 or 3.3×10^−6 M of each PEPTIDE was added before the plasma addition. […] The percentage of enzymatic activity inhibition was estimated in function of the maximum activity obtained.

Mas receptor = settings: Dong et al., Cell 2001; read-out: EC50, affinity with Mas receptor; cited from earlier work

Molecule: Ala^1-Arg^2-Val^3-Tyr^4-Ile^5-His^6-Pro^7-Phe^8 (ARVYIHPF; Angiotensin-2; UniProt P01019 25-32, looked up, variant D1A) [Ala^1-Ang II]
pressor activity compared with Ang II (wild-type mice): only a fraction of the Ang II activity
affinity with AT1 receptor compared with Ang II (AT1 receptor): does not substantially differ from Ang II
affinity with AT2 receptor compared with Ang II (AT2 receptor): does not substantially differ from Ang II

inhibition of the ACE activity [1]: 98%
Molecule: C[C@H](N[C@@H](CCc1ccccc1)C(=O)O)C(=O)N1CCC[C@H]1C(=O)O [enalaprilate]

Molecule: NPFF: one PEPTIDE called NPFF, which had shown affinity with the Mas receptor, though reasonably feeble
EC50 (Mas receptor): ~400 nM

Source: patent US9974825B2, “Peptides Des-[Asp1]-[Ala1], angiotensin-(1-7) agonist and pharmaceutical compositions for the treatment of diseases” (UNIVERSIDADE FEDERAL DE MINAS GERAIS, priority 2008, dated 2018)
